Earlier results, collected in PMC7745548 (International Journal of Tryptophan Research : IJTR, 2020).

Columns and labels:
[1] = system: CYP2C9; details: O-demethylation major pathway
[2] = system: CYP1A2
[3] = system: human microsomal P450 1A2 (CYP1A2); details: different crystal structure (PDB code: 1FAG) ref 26, 28

SMILES | Metabolism by CYP2C9 [1] | Metabolism by CYP1A2 [2] | Distance between SOM and Fe(II) ion of heme [3] [Å]
COc1ccc2c(c1)c(CC(=O)O)c(C)n2C(=O)c1ccc(Cl)cc1 [Indomethacin] | mainly metabolised by CYP2C9 | only slightly metabolised by CYP1A2 | –
COc1ccc2[nH]cc(CCNC(C)=O)c2c1 [MLT, N-acetyl-5-methoxytryptamine] | – | – | 4.15
